PMC12064818, “A general assay platform to study protein pharmacology using ligand-dependent structural dynamics” (Nature Communications, 2025)

Molecular target: T1, FLuc-C-HiBiT (Photinus pyralis, UniProt P08659)
T1 construct: firefly luciferase with C-terminal HiBiT tag, E. coli expressed
Experiment: biochemical
Conditions: enzyme activity, 10 uM ATP; read-out: IC50 or SDR50 (mM) / FLuc E

T1 sequence (P08659 whole entry, looked up): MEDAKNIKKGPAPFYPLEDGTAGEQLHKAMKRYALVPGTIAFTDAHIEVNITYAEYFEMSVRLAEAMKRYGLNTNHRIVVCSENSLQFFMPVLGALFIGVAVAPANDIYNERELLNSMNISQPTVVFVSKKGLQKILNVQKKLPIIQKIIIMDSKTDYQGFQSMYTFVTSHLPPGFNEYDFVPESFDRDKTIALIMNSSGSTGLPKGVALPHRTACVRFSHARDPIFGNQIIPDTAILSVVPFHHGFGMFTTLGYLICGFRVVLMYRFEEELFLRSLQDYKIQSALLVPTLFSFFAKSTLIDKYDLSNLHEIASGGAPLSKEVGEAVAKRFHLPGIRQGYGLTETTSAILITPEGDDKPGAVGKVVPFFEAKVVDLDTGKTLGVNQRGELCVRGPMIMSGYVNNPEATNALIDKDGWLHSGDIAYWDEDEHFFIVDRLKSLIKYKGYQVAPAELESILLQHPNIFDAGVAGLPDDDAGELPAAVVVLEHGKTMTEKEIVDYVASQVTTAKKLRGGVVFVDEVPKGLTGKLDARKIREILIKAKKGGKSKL

| Structure (SMILES) | IC50 [mM] |
| --- | --- |
| O=C1c2cnc(-c3ccc(F)cc3)nc2OCCN1CC1CC1 [NCGC00413585-01] | 0.0143 |
| O=C1c2cnc(-c3cc4ccccc4o3)nc2OCCN1Cc1ccccc1 [NCGC00413600-01] | 0.00161 |
| COc1ccc(-c2ncc3c(n2)OCCN(Cc2ccccc2)C3=O)cc1 [NCGC00413617-01] | 0.018 |
| COc1cccc(-c2ncc3c(n2)OCCN(Cc2ccc(F)cc2F)C3=O)c1 [NCGC00413648-01] | 0.0161 |
| O=C1c2cnc(-c3ccc(F)cc3F)nc2OCCN1CC1CC1 [NCGC00413656-01] | 0.018 |
| CCOc1nccn2c(-c3ccc(CNC(=O)CNC(C)=O)cc3)cnc12 [NCGC00413921-01] | 0.018 |
| COc1ccc(CN2CC(COc3ccccc3)C3(C2)CN(c2ccccc2)C3)cc1O (stereo not drawn) [NCGC00415956-01] | > 0.03 |
| CCOCC1(C)COc2ccc(C(=O)Nc3ccccc3)cc2N1 (stereo not drawn) [NCGC00416079-01] | 0.018 |
| COc1cc2c(cc1-c1ccc(CO)cc1)NC(=O)C21CCN(C)CC1 [NCGC00416803-01] | 0.0202 |
| CNC(=O)CCn1ncc2cc(OCc3ccccc3-c3cccc(NC(C)=O)c3)ccc21 [NCGC00418019-01] | 0.00313 |
| Cc1cc(-c2cccc(COc3ccc4c(cnn4CC[S+](C)(=O)[O-])c3)c2)ccn1 [NCGC00418048-01] | 0.018 |
| CC(C)Oc1cccc(-c2cccc(COc3ccc4c(cnn4CC[S+](C)(=O)[O-])c3)c2)c1 [NCGC00418050-01] | 0.0111 |
| C[S+](=O)([O-])CCn1ncc2cc(OCc3cccc(-c4ccccc4O)c3)ccc21 [NCGC00418051-01] | 0.0143 |
| COc1cc(F)ccc1-c1ccc(COc2ccc3c(cnn3CCC(=O)O)c2)cc1 [NCGC00418071-01] | 0.018 |
| COc1ccc(F)cc1-c1ccc(COc2ccc3c(cnn3CCC(=O)O)c2)cc1 [NCGC00418072-01] | 0.018 |
| Cc1ccc(F)cc1-c1ccc(COc2ccc3c(cnn3CCC(=O)O)c2)cc1 [NCGC00418121-01] | 0.018 |
| O=C(O)CCn1ncc2cc(OCc3ccc(-c4cccc(CO)c4)cc3)ccc21 [NCGC00418123-01] | 0.0161 |
| CC(=O)Nc1cccc(-c2ccc(COc3ccc4c(cnn4CCC(=O)O)c3)cc2)c1 [NCGC00418146-01] | 0.00101 |
| Cc1ccccc1-c1cccc(COc2cnc3c(ccn3CC(=O)O)c2)c1 [NCGC00418175-01] | 0.018 |
| COc1cccc(-c2cccc(COc3cnc4c(ccn4CC(=O)O)c3)c2)c1 [NCGC00418182-01] | 0.0161 |
| CC(C)Oc1cccc(-c2cccc(COc3cnc4c(ccn4CC(=O)O)c3)c2)c1 [NCGC00418183-01] | 0.018 |

| Structure (SMILES) | IC50 [mM] |
| --- | --- |
| CC(=O)Nc1cccc(-c2cccc(CCOc3cnc4c(ccn4CC(=O)O)c3)c2)c1 [NCGC00418203-01] | 0.0161 |
| COc1ccc(-c2cccc(COc3cnc4c(ccn4CC(=O)O)c3)c2)c(C)c1 [NCGC00418229-01] | > 0.03 |
| CN1Cc2ccc(C(=O)NCCOc3ccccc3)cc2OCC1=O [NCGC00418504-01] | 0.0202 |
| Cc1cnc(NC(=O)c2ccc3c(c2)OCC(=O)N(C)C3)s1 [NCGC00418511-01] | 0.0143 |
| Cc1csc(NC(=O)c2ccc3c(c2)OCC(=O)N(C)C3)n1 [NCGC00418513-01] | 0.018 |
| COCCN1CCC2(C1)CN(C)c1ccc(C(=O)Nc3ccc(F)cc3)cc12 (stereo not drawn) [NCGC00419287-01] | 0.00718 |
| C[C@H](C(=O)N1CCOCC1)C1CC[C@@]2(C)Cc3sc(-c4ccccc4)nc3[C@@H](C)[C@@H]2[C@H]1O (stereo partly drawn) [NCGC00421021-01] | 0.00351 |
| C[C@H](C(=O)NCCN1CCOCC1)C1CC[C@@]2(C)Cc3sc(-c4ccccc4)nc3[C@@H](C)[C@@H]2[C@H]1O (stereo partly drawn) [NCGC00421022-01] | 0.000989 |
| COc1ccc(/C=C/c2ccc3c(c2)C(=O)N2CC[C@H](NC(=O)COCC(=O)O)[C@H]2C(=O)N3)cc1 [NCGC00421238-01] | 0.00989 |
| C[C@H](C(=O)N(C)CCC#N)C1CC[C@@]2(C)Cc3sc(NC(=O)c4cccn4C)nc3[C@@H](C)[C@@H]2[C@H]1O (stereo partly drawn) [NCGC00421252-01] | 0.007 |
| Cc1nn(-c2ccc(C(C)C)cc2)c(C)c1[C@@H]1C=C[C@@H](NC(=O)Nc2ccccc2)C1 [NCGC00421405-01] | 0.018 |
| Cc1nn(-c2ccc(C(C)C)cc2)c(C)c1[C@@H]1C=C[C@@H](NC(=O)CC2(CC(=O)O)CCCC2)C1 [NCGC00421413-01] | > 0.03 |
| O=C(N[C@H]1CCN2C(=O)c3cc(/C=C/c4ccc(O)cc4)ccc3NC(=O)[C@H]12)c1cnccn1 [NCGC00421527-01] | > 0.03 |
| C[C@@H]1C(=O)O[C@H]2[C@H]1CC[C@@]1(C)Cc3sc(Nc4cccnc4)nc3[C@@H](C)[C@H]21 [NCGC00421621-01] | 0.000453 |
| C[C@@H]1C(=O)O[C@H]2[C@H]1CC[C@@]1(C)Cc3sc(NC(=O)c4c(F)cccc4F)nc3[C@@H](C)[C@H]21 [NCGC00421654-01] | 0.00989 |
| COc1cccc(Nc2nc(-c3ccccc3)no2)c1 [NCGC00422289-01] | 0.00624 |
| Fc1ccccc1Nc1nc(-c2ccccc2)no1 [NCGC00422293-01] | 0.0007 |
| Fc1ccc(Nc2nc(-c3ccccc3)no2)cc1 [NCGC00422295-01] | 0.00624 |
| CCc1ccc(Nc2nc(-c3ccccc3F)no2)cc1 [NCGC00422308-01] | 0.00624 |
| COc1ccc(-c2noc(Nc3ccc(OC)c(OC)c3)n2)cc1 [NCGC00422322-01] | 0.0111 |

Next, values leading:

| IC50 [mM] | Structure (SMILES) |
| --- | --- |
| 0.018 | O=C1c2cnc(-c3ccsc3)nc2OCCN1c1ccccc1 [NCGC00413608-01] |
| 0.0128 | CN(C)c1cccc(-c2ncc3c(n2)OCCN(c2ccccc2)C3=O)c1 [NCGC00413615-01] |
| 0.0128 | COc1cccc(-c2ncc3c(n2)OCCN(Cc2ccccc2)C3=O)c1 [NCGC00413619-01] |
| 0.0143 | O=C1c2cnc(-c3cccc(F)c3)nc2OCCN1c1ccccc1 [NCGC00413626-01] |
| > 0.03 | O=C1c2cnc(-c3ccccc3)nc2OCCN1Cc1ccccc1 [NCGC00413632-01] |
| 0.0202 | OC1CN(Cc2ccc(-c3cnc4c(OCc5ccccc5)nccn34)cc2)C1 [NCGC00414051-01] |
| 0.0036 | O=c1c2nc(N3CCC(c4ccccc4)CC3)ccc2ncn1C1CC1 [NCGC00414736-01] |
| 0.00568 | CN(c1ccccc1)c1ccc2ncn(C3CC3)c(=O)c2n1 [NCGC00414800-01] |
| 0.018 | CCOCC1(C)COc2ccc(C(=O)Nc3ccc(Cl)cc3)cc2N1 (stereo not drawn) [NCGC00416138-01] |
| 0.0202 | COc1ccc(Nc2cc3c(nc2OC)nc(CCc2ccccc2)n3C)cn1 [NCGC00417814-01] |
| 0.0161 | Cc1oc(C(O)c2ccccc2F)nc1C(=O)Nc1ccc(N2CCOCC2)cc1 (stereo not drawn) [NCGC00417991-01] |
| 0.0161 | C[S+](=O)([O-])CCn1ncc2cc(OCc3cccc(-c4cccnc4)c3)ccc21 [NCGC00418034-01] |
| 0.0161 | C[S+](=O)([O-])CCn1ncc2cc(OCc3cccc(-c4cccc(O)c4)c3)ccc21 [NCGC00418035-01] |
| 0.0161 | C[S+](=O)([O-])CCn1ncc2cc(OCc3cccc(-c4ccc(F)cc4)c3)ccc21 [NCGC00418040-01] |
| 0.018 | Cn1cc(-c2cccc(COc3ccc4c(cnn4CC[S+](C)(=O)[O-])c3)c2)cn1 [NCGC00418049-01] |
| 0.0202 | COc1cccc(F)c1-c1ccc(COc2ccc3c(cnn3CCC(=O)O)c2)cc1 [NCGC00418057-01] |
| 0.0064 | C[S+](=O)([O-])CCn1ncc2cc(OCc3cccc(-c4ccccc4)c3)ccc21 [NCGC00418095-01] |
| 0.0161 | Cc1ccccc1-c1ccc(COc2ccc3c(cnn3CCC(=O)O)c2)cc1 [NCGC00418125-01] |
| 0.0202 | CC(C)c1cnc(N2CCC(COc3ccc4c(cnn4CCC(=O)O)c3)CC2)nc1 [NCGC00418130-01] |
| 0.0202 | COc1cc(Cl)ccc1-c1ccc(COc2ccc3c(cnn3CCC(=O)O)c2)cc1 [NCGC00418159-01] |

| IC50 [mM] | Structure (SMILES) |
| --- | --- |
| 0.00805 | Cc1ccc(-c2cccc(COc3cnc4c(ccn4CC(=O)O)c3)c2)cc1 [NCGC00418171-01] |
| 0.0128 | COc1cccc(-c2cccc(COc3cnc4c(ccn4CC(=O)O)c3)c2)c1F [NCGC00418177-01] |
| 0.018 | Cc1ccc(-c2cccc(COc3cnc4c(ccn4CC(=O)O)c3)c2)cc1C [NCGC00418247-01] |
| > 0.03 | Cc1ccc(-c2cccc(COc3cnc4c(ccn4CC(=O)O)c3)c2)c(C)c1 [NCGC00418282-01] |
| 0.0202 | O=C(Nc1nc2ccccc2s1)c1ccc2c(c1)OCCN(CCC(F)(F)F)C2 [NCGC00418456-01] |
| 0.00114 | COCCN1CCC2(C1)CN(C)c1ccc(C(=O)Nc3ccccc3)cc12 (stereo not drawn) [NCGC00419345-01] |
| 0.0101 | COCCN1CCC2(C1)CN(C)c1ccc(C(=O)Nc3ccn(C)n3)cc12 (stereo not drawn) [NCGC00419376-01] |
| > 0.03 | CC(C)(Oc1nn(CC2CC2)c2ccc(CN3CCCC3)cc12)C(=O)NC1CCOCC1 [NCGC00419513-01] |
| > 0.03 | CN1CCC(NC(=O)C(C)(C)Oc2nn(Cc3ncccn3)c3ccccc23)CC1 [NCGC00419638-01] |
| 0.0143 | CSCC(=O)N[C@H]1CCN2C(=O)c3cc(/C=C/c4ccccc4)ccc3NC(=O)[C@H]12 [NCGC00421159-01] |
| > 0.03 | C=CCN(C)C(=O)[C@@H](C)C1CC[C@@]2(C)Cc3sc(NC(=O)CN(C)C)nc3[C@@H](C)[C@@H]2[C@H]1O (stereo partly drawn) [NCGC00421253-01] |
| > 0.03 | COc1ccc(NC(=O)N[C@@H]2C=C[C@@H](c3c(C)nn(-c4ccc(C(C)C)cc4)c3C)C2)cc1 [NCGC00421407-01] |
| 0.0064 | COc1ccc(-n2nc(C)c([C@@H]3C=C[C@@H](NC(=O)NCc4ccccc4)C3)c2C)cc1 [NCGC00421411-01] |
| 0.0176 | c1ccc(CNc2nc(-c3ccccc3)no2)cc1 [NCGC00422290-01] |
| 0.00624 | CCOC(=O)c1cccc(Nc2nc(-c3ccccc3)no2)c1 [NCGC00422292-01] |
| 0.007 | Fc1cccc(Nc2nc(-c3ccccc3)no2)c1 [NCGC00422294-01] |
| 0.00495 | CCOc1ccc(Nc2nc(-c3ccccc3)no2)cc1 [NCGC00422297-01] |
| 0.00351 | COc1ccc(Nc2nc(-c3ccccc3F)no2)cc1OC [NCGC00422302-01] |
| 0.00989 | Fc1ccc(Nc2nc(-c3ccccc3F)no2)cc1 [NCGC00422310-01] |
| 0.00624 | Cc1cc(C)cc(Nc2nc(-c3ccccc3F)no2)c1 [NCGC00422314-01] |
